The values below come from publication PMC9750872, “Ras-mutant cancers are sensitive to small molecule inhibition of V-type ATPases in mice” (Nature biotechnology, 2022).

pKd: −log10 of the molar value.

The target of one test is DDR1 (Homo sapiens, UniProt Q08345). Briefly: KINOMEscan Kd determination. It is filed as binding. The following applies: 11-point serial dilution, top 30,000 nM. An excerpt: (§1) The KINOMEscan™ Profiling Service consisting of 468 human kinases was used to assess 249C inhibitor activity to check for off-target effects as previously described.
(§2) Supplementary Fi g u re 12: Compound 249C assessed for off-target effects using the KIN OME scanTM screening platform. (A) Selectivity (S-score) for 249C wher e the sco re is a qu antitative measu re o f compound selectivity against human kinases. It is calculate b y dividing the number of k inases that compounds bi nd to b y the total number of distinct kinases tested, excluding mutant variants (S = number of hits / number of assa ys). 1 hit out of >400 kinases is reported for test compound (249C) = 0.002. S(35) = number of non- mutant kinases with % ctrl <35/number of non- mutant kinases; (B) Kinome interaction map for 249C at 10,000 nM. Each red dot indicates a kinase found to bind, where larger dots indicate higher affinit y interactions.
(§3) 1 Tyrosine Kinase (TK) out of >400 kinases ( created in TREEspotTM ) with low affinity. This is calculated using
(§4) Dissociation constants (Kds) were determined using 249C at 30,000 nM, Hill slopes were set to - 1 and curves were fitted using a non- linear least square fit with the […]
(§5) (1 picture or pasted object on this page, not shown here)

The target of a further test is DDR2 (Homo sapiens, UniProt Q16832). The test can be described thus: KINOMEscan Kd determination. It is filed as binding. The following applies: 11-point serial dilution, top 30,000 nM.
Description: as §1, §2, §3, §4, §5

DDR2, sequence (Q16832 22-855): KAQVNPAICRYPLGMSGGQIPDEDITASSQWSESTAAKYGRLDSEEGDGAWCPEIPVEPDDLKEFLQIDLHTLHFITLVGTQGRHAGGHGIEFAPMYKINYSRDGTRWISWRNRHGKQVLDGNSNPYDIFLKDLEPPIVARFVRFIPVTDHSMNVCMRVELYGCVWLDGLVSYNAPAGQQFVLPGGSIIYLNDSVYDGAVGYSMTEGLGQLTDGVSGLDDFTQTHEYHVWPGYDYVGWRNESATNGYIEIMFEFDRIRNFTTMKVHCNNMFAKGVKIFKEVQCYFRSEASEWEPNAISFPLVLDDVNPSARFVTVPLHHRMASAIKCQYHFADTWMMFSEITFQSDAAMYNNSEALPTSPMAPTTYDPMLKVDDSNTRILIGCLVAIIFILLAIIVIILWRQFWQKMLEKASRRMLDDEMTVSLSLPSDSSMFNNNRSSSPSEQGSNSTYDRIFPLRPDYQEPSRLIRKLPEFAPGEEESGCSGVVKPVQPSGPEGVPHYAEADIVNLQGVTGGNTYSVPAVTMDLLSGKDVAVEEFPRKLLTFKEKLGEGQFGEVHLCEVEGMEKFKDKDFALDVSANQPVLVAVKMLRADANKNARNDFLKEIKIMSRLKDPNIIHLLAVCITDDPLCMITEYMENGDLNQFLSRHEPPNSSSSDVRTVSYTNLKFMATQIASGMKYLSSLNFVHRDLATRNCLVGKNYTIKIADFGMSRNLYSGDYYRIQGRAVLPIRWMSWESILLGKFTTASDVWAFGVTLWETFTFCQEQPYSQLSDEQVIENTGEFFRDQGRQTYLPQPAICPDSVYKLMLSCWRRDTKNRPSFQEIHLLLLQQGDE
DDR1, sequence (Q08345 19-913): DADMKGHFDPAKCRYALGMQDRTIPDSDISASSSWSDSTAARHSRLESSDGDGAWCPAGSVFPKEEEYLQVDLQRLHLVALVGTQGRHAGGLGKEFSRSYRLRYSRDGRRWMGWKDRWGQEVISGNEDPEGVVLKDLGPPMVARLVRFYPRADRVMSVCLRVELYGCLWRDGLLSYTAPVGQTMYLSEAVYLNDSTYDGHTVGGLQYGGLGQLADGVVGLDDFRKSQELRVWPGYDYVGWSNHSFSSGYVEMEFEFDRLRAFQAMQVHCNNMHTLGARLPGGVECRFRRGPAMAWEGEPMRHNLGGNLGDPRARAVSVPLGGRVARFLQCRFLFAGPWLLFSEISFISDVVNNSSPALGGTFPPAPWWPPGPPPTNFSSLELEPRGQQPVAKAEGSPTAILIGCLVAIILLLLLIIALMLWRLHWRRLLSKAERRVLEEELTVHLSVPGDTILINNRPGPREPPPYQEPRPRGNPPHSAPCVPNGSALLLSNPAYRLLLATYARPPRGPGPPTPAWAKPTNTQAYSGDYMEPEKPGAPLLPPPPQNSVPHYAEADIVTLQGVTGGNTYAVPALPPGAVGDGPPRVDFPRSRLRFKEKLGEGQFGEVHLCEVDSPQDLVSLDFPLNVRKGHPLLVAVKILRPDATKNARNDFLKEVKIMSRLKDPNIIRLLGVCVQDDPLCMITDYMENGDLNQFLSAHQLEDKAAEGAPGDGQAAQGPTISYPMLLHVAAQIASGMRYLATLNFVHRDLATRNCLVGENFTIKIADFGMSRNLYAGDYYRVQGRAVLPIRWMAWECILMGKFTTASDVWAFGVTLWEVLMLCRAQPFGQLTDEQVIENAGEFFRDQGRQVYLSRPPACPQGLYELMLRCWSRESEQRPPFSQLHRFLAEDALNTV

As to `CN1CCOC(CNC(=O)C2(C)C(c3ccc(Cl)o3)C(c3ccc(F)cc3F)=NN2c2ccc(F)cc2F)C1` (centres unmarked) [Compound 249C], the pKd at DDR1 is 5.27; at DDR2, 4.80.
